Measurements taken from US20240140941A1, “DERIVATIVE OF 2,5-DIKETOPIPERAZINE COMPOUND, AND PREPARATION METHOD THEREFOR, PHARMACEUTICAL COMPOSITION THEREOF AND USE THEREOF” (DALIAN WZ PROBIOTICS AD HEALTH CO., LTD, priority 2020, published 2024).
Structures can show the parent of a compound that is named as a salt. Where two headings read alike, the source gives them in different places.

Legend:
[1] = system: NCI-H460; test: Inhibition test on cell proliferation (MTT), NCI-H460; assay type: cell-based, human; details: 72 hours of drug treatment, MTT, read-out: IC50 (nM) NCI-H460
Procedure, shortened: (§1)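 Cells plated at 2000-6000 per well, allowed to adhere for 24 h, then exposed to serially diluted compound for 72 h at 37 °C, 5% CO2. Viability read by MTT reduction, with formazan dissolved in DMSO and absorbance taken at 490 nm. Inhibition rate calculated relative to untreated and zero-setting wells.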

[2] = system: BxPC-3; test: Inhibition test on cell proliferation (MTT), BxPC-3; assay type: cell-based, human; details: 72 hours of drug treatment, MTT, read-out: IC50 (nM) BxPC-3
Procedure, shortened: as §1

[3] = system: HCC-LM3; test: Inhibition test on cell proliferation (MTT), HCC-LM3; assay type: cell-based, human; details: 72 hours of drug treatment, MTT, read-out: IC50 (nM) HCC-LM3
Description: (§2) Tumor cells (NCI-H460, BxPC-3, HT-29, HCC-LM3) in the logarithmic growth phase were digested, centrifuged, and the supernatants were removed. Cells were resuspended by adding fresh culture medium, and counted using a cell counting plate. 100 μL of culture medium (containing cells) was added to a 96-well plate according to the standard of 2000 to 6000 cells per well and incubated in an incubator (37° C., 5% CO2) for 24 hours. After the cells were completely adhered to the wall, the test sample and Plinabulin were diluted to different concentrations using fresh culture medium, and 4 wells were set for each concentration. After 72 hours of drug treatment, the culture medium was removed, and 20 μL of MTT at a concentration of 5 mg/mL was added to each well. After 3-4 hours in the incubator, the MTT was discarded, and 100 μL of DMSO was added to each well, and placed in a 96-well plate shaker to completely dissolve the purple formazan. Subsequently, the absorbance (OD value) was detected at a wavelength of 490 nm using a microplate reader. The experiment also required setting up zero-setting wells (blank culture medium, MTT, DMSO). Cell inhibition rate=1−(OD value of drug-dosed group−OD value of zero-setting group)/(OD value of blank group−OD value of zero-setting group)×100%.

[4] = system: HT-29; test: Inhibition test on cell proliferation (MTT), HT-29; assay type: cell-based, human; details: 72 hours of drug treatment
Description: as §2

[5] = Compound solubility experiment, Method 1: equilibrium solubility in pure water, LC-MS; assay type: physicochemical; details: ultrapure water, 37±1° C., shaken 24 hours; for solubility at 24 h: 37 °C, thermodynamic from solid
Description: Method 1: A 1.5 mL brown EP tube was taken, about 1 mg of compound was weighed respectively, and 1 mL of ultrapure water was added thereto. The mixture was vortexed, and sonicated until the compound was no longer dissolved (the solution was turbid or had suspended particles). The mixture was put into an incubation shaker, maintained at a temperature of (37±1° C.), shaken at 100 r/min for 24 hours, so as to achieve full dissolution equilibrium. After 24 hours, the supernatant was quickly filtered through a 0.45 μm microporous membrane, and the initial filtrate was discarded. 200 μL of the renewed filtrate was taken and diluted with 200 μL of methanol. The assay was repeated at least three times. According to the chromatographic conditions, the sample was injected by LC-MS, and the peak area was measured and the equilibrium solubility of each 2,5-diketopiperazine derivative in pure water was calculated.

SMILES	IC50 ([1]; Homo sapiens, NCI-H460, 72 h) [nM]	IC50 ([2]; Homo sapiens, BXPC-3, 72 h) [nM]	IC50 ([3]; Homo sapiens, HCCLM3, 72 h) [nM]	IC50 ([4]; Homo sapiens, HT-29, 72 h) [nM]	melting point [°C]	solubility at 24 h [5] [µg/mL]	IC50 [2] [nM]	IC50 [3] [nM]	IC50 [4] [nM]	IC50 [1] [nM]	Solubility [5] [µg/mL]
CC(C)c1c(/C=c2\[nH]c(=O)/c(=C/c3cccc4ccccc34)[nH]c2=O)ncn1CCCN1CCOCC1 [PLN-2-54, (3Z,6Z)-3-(1-Naphthalenyl)methylene-6-((5-isopropyl-1-(3-morpholinyl)propylimidazol-4-yl)methylene)piperazine-2,5-dione]	8.28 ± 0.91	5.74 ± 2.19	3.48 ± 2.6	6.55 ± 0.33	248 to 250	–	–	–	–	–	–
CC(C)c1c(/C=c2\[nH]c(=O)/c(=C/c3cccc(Oc4ccc(F)cc4)c3)[nH]c2=O)ncn1CCCN1CCOCC1 [PLN-2-2]	5.25 ± 0.49	–	–	–	194 to 195	< 0.5	4.63 ± 0.16	5.58 ± 1.03	3.83 ± 0.43	–	–
Cc1cccc(/C=c2\[nH]c(=O)/c(=C/c3ncn(CCCN4CCOCC4)c3C(C)C)[nH]c2=O)c1 [PLN-2-51, (3Z,6Z)-3-(3-Methylphenyl)methylene-6-((5-isopropyl-1-(3-morpholinyl)propylimidazol-4-yl)methylene)piperazine-2,5-dione]	21.7 ± 3.04	13.9 ± 3.21	7.49 ± 0.12	9.03 ± 0.29	178 to 180	–	–	–	–	–	–
COc1cccc(/C=c2\[nH]c(=O)/c(=C/c3ncn(CCCN4CCOCC4)c3C(C)C)[nH]c2=O)c1 [PLN-2-52, (3Z,6Z)-3-(3-Methoxyphenyl)methylene-6-((5-isopropyl-1-(3-morpholinyl)propylimidazol-4-yl)methylene)piperazine-2,5-dione]	16.5 ± 3.48	13.9 ± 0.89	7.54 ± 0.68	8.49 ± 0.54	184 to 186	–	–	–	–	–	–
CC(C)c1c(/C=c2\[nH]c(=O)/c(=C/c3cccc(F)c3)[nH]c2=O)ncn1CCCN1CCO[C@H](C)C1 [PLN-2-56, (3Z,6Z)-3-(3-Fluorophenyl)methylene-6-(5-isopropyl-1-(3-((R)-2-methylmorpholinyl)propylimidazol-4-yl)methylene)piperazine-2,5-dione]	5.59 ± 1.4	3.24 ± 0.73	4.26 ± 0.25	2.62 ± 0.91	212 to 214	–	–	–	–	–	–
CC(C)c1c(/C=c2\[nH]c(=O)/c(=C/c3cccc(F)c3)[nH]c2=O)ncn1CCCN1CCOCC1 [PLN-2-9, (3Z,6Z)-3-fluorophenylmethylene-6-((5-isopropyl-1-(−3-morpholinyl)propylimidazol-4-yl)methylene)piperazine-2,5-dione]	8.51 ± 0.1	5.47 ± 0.57	5.13 ± 0.12	4.37 ± 0.62	–	< 0.5	–	–	–	–	–
CC(C)c1c(/C=c2\[nH]c(=O)/c(=C/c3cc(F)cc(F)c3)[nH]c2=O)ncn1CCCN1CCOCC1 [PLN-2-62]	4.17 ± 0.75	3.44 ± 0.12	3.89 ± 0.16	3.49 ± 0.23	–	< 0.5	–	–	–	–	–
C=CC(=O)N1CCN(CCCn2cnc(/C=c3\[nH]c(=O)/c(=C/c4cccc(F)c4)[nH]c3=O)c2C(C)C)CC1 [PLN-2-61-1]	–	–	–	–	238.6 to 240.6	–	9.37 ± 0.78	16.5 ± 5.66	14 ± 0.58	16.9 ± 1.29	–
CC(C)c1c(/C=c2\[nH]c(=O)/c(=C/c3cccc(C(=O)c4ccc(F)cc4)c3)[nH]c2=O)ncn1CCCN1CCOCC1 [PLN-2-1, (3Z,6Z)-3-(3-(p-fluorobenzoyl)phenyl)methylene-6-((5-isopropyl-1-(3-morpholinyl)propylimidazol-4-yl)methylene)piperazine-2,5-dione]	–	–	–	–	–	< 0.5	2.29 ± 0.82	4.2 ± 0.12	1.03 ± 0.11	3.45 ± 0.33	–
O=c1[nH]/c(=C\c2ncn(CCCN3CCOCC3)c2C2CC2)c(=O)[nH]/c1=C\c1cccc(F)c1 [PLN-2-10, (3Z,6Z)-3-m-fluorophenylmethylene-6-((5-cyclopropyl-1-(−3-morpholinyl)propylimidazol-4-yl)methylene)piperazine-2,5-dione]	17.7 ± 5.18	8.97 ± 0.74	14.9 ± 0.22	10.6 ± 1.27	–	< 0.5	–	–	–	–	–
O=c1[nH]/c(=C\c2ncn(CCCN3CCOCC3)c2C2CC2)c(=O)[nH]/c1=C\c1cccc(Oc2ccc(F)cc2)c1 [PLN-2-4]	25.7 ± 2.62	–	–	–	–	< 0.5	–	–	–	–	–
CC(C)c1c(/C=c2\[nH]c(=O)/c(=C/c3ccc(F)c(F)c3)[nH]c2=O)ncn1CCCN1CCOCC1 [PLN-2-63]	72.2 ± 4.86	55.3 ± 3.42	64.9 ± 5.12	–	–	< 0.5	–	–	–	–	–
CC(C)c1c(/C=c2\[nH]c(=O)/c(=C/c3ccccc3)[nH]c2=O)ncn1CCCN1CCOCC1 [PLN-2-5, (3Z,6Z)-3-benzylidene-6-((5-isopropyl-1-(−3-morpholinyl)propylimidazol-4-yl)methylene)piperazine-2,5-dione]	19.4 ± 1.63	12.5 ± 1.47	9.78 ± 2.21	11.8 ± 1.31	199.1 to 201.1	< 0.5	–	–	–	–	–
Cc1ccccc1/C=c1\[nH]c(=O)/c(=C/c2ncn(CCCN3CCOCC3)c2C(C)C)[nH]c1=O [PLN-2-49, (3Z,6Z)-3-(2-Methylphenyl)methylene-6-((5-isopropyl-1-(3-morpholinyl)propylimidazol-4-yl)methylene)piperazine-2,5-dione]	33.7 ± 0.7	27.3 ± 2.75	18.4 ± 1.42	35.2 ± 2.15	169 to 171	–	–	–	–	–	–
C=CC(=O)N1CCN(CCCn2cnc(/C=c3\[nH]c(=O)/c(=C/c4cccc(F)c4)[nH]c3=O)c2C(C)C)CC1 [PLN-2-61, (3Z,6Z)-3-(3-Fluorophenyl)methylene-6-(5-isopropyl-1-(3-(4-(acryloyl)piperazinyl)propylimidazol-4-yl)methylene)piperazine-2,5-dione]	19.6 ± 2.15	8 ± 1.15	31.2 ± 6.92	14.1 ± 0.22	182 to 184	–	–	–	–	–	–
CC(C)c1c(/C=c2\[nH]c(=O)/c(=C/c3cccc(OC(F)(F)F)c3)[nH]c2=O)ncn1CCCN1CCOCC1 [PLN-2-53, (3Z,6Z)-3-(3-Tifluoromethoxyphenyl)methylene-6-((5-isopropyl-1-(3-morpholinyl)propylimidazol-4-yl)methylene)piperazine-2,5-dione]	11.6 ± 1.11	7.17 ± 0.52	6.55 ± 1.39	9.71 ± 0.74	251 to 253	–	–	–	–	–	–
Cc1cccc(/C=c2\[nH]c(=O)/c(=C/c3ncn(CCCN4CCOCC4)c3C(C)C)[nH]c2=O)c1C [PLN-2-50, (3Z,6Z)-3-(2,3-Dimethylphenyl)methylene-6-((5-isopropyl-1-(3-morpholinyl)propylimidazol-4-yl)methylene)piperazine-2,5-dione]	41.3 ± 1.25	23 ± 1.56	20.8 ± 2.56	37.1 ± 3.15	164 to 166	–	–	–	–	–	–
CC(C)c1c(/C=c2\[nH]c(=O)/c(=C/c3cccc(F)c3)[nH]c2=O)ncn1CCCN1CCO[C@@H](C)C1 [PLN-2-57, (3Z,6Z)-3-(3-Fluorophenyl)methylene-6-(5-isopropyl-1-(3-((S)-2-methylmorpholinyl)propylimidazol-4-yl)methylene)piperazine-2,5-dione]	16.6 ± 4.94	8.56 ± 0.01	13.9 ± 2.5	–	211 to 213	–	–	–	5.07 ± 2.12	–	–
CC(C)(C)c1[nH]cnc1/C=c1\[nH]c(=O)/c(=C/c2ccccc2)[nH]c1=O [Plinabulin hydrochloride, reference compound]	–	–	–	–	–	–	–	–	–	–	7.654
O=C(c1ccc(F)cc1)c1cccc(/C=c2\[nH]c(=O)/c(=C/c3ncn(CCCN4CCOCC4)c3C3CC3)[nH]c2=O)c1 [PLN-2-3]	4.9 ± 0.61	1.43 ± 0.95	6.31 ± 0.16	2.15 ± 0.33	–	< 0.25	–	–	–	–	–
